The experiment concerns EHV-4 405/76 reference strain. As to the kind of experiment: RTCA. It is filed as cell-based, Equid herpesvirus 4. The settings on record: for AUCn: area under normalized Cell Index curves, 0-120 hpi, EHV-4-infected E. Derm cells.
The mark [1] stands for this setting: Equid alphaherpesvirus 4, 120 h, read-out: %AUCn.

Counter-ions that a name gives are not always drawn.

We go through 27 compounds from publication PMC11125953 (Viruses, 2024).

For `C[C@@]1(O)[C@H](O)[C@@H](CO)O[C@H]1n1ccc(N)nc1=O` [2′-C-methylcytidine], the AUCn reads like this: (0.4 µM) 37.52; (2 µM) 35.13; (10 µM) 26.93; (50 µM) 30.32.

In turn, `O=c1[nH]cc(F)c(=O)[nH]1` [5-fluorouracil] had an AUCn (0.4 µM) of 39.89, an AUCn (2 µM) of 31.41, an AUCn (10 µM) of 31.13 and an AUCn (50 µM) of 36.75.

On to `Sc1ncnc2nc[nH]c12` [6-mercaptopurine], for which the AUCn is, setting by setting: (0.4 µM) 39.53; (2 µM) 37.02; (10 µM) 28.97; (50 µM) 27.72.

Turning to `Nc1nc2nc[nH]c2c(=S)[nH]1` [6-thioguanine], the AUCn reads like this: (0.4 µM) 37.89; (2 µM) 38.05; (10 µM) 34.04; (50 µM) 29.32.

`C[C@H](CCCC(C)(C)O)[C@H]1CC[C@H]2[C@@H]3CC=C4C[C@@H](O)CC[C@]4(C)[C@H]3CC[C@]12C` [25-hydroxycholesterol] came in with an AUCn (0.4 µM) of 39.29, an AUCn (2 µM) of 34.81, an AUCn (10 µM) of 29.79 and an AUCn (50 µM) of 31.86.

`Nc1nc(NC2CC2)c2ncn([C@H]3C=C[C@@H](CO)C3)c2n1` [Abacavir sulfate]: the AUCn by setting is: (0.4 µM) 38.16; (2 µM) 32.21; (10 µM) 31.76; (50 µM) 32.99.

Consider `CC(C)(C)C(=O)OCOP(=O)(COCCn1cnc2c(N)ncnc21)OCOC(=O)C(C)(C)C` [Adefovir dipivoxil], for which the AUCn is listed as 99.92 (0.4 µM), 93.75 (2 µM), 73.47 (10 µM) and 39.70 (50 µM).

With `CCOC(=O)c1c(CSc2ccccc2)n(C)c2cc(Br)c(O)c(CN(C)C)c12` [Arbidol], the AUCn amounted to 31.88 (0.4 µM), 39.33 (2 µM), 37.59 (10 µM) and 35.06 (50 µM).

Turning to `O=c1[nH]c(=O)n([C@H]2C[C@H](O)[C@@H](CO)O2)cc1/C=C/Br` [Brivudine], the AUCn is 28.13 (0.4 µM), 30.37 (2 µM), 31.74 (10 µM) and 36.82 (50 µM).

Consider `CCCCCOC(=O)Nc1nc(=O)n([C@@H]2O[C@H](C)[C@@H](O)[C@H]2O)cc1F` [Capecitabine], for which the AUCn runs as follows: (0.4 µM) 35.92; (2 µM) 36.42; (10 µM) 36.13; (50 µM) 33.97.

Turning to `Nc1ccn([C@@H]2O[C@H](CO)[C@@H](O)[C@@H]2O)c(=O)n1` [Cytarabine], the AUCn reads like this: (0.4 µM) 28.59; (2 µM) 32.46; (10 µM) 91.79; (50 µM) 91.89.

On to `Cc1ccc2c(=O)c3cccc(CC(=O)O)c3oc2c1C` [DMXAA], for which the AUCn reads like this: (0.4 µM) 36.50; (2 µM) 37.99; (10 µM) 41.23; (50 µM) 60.10.

For `O=c1[nH]cnc2c1ncn2[C@H]1CC[C@@H](CO)O1` [Didanosine], the AUCn is 37.77 (0.4 µM), 36.23 (2 µM), 29.27 (10 µM) and 38.91 (50 µM).

For the compound `O=C(N/N=C/c1ccc(O)c(O)c1)c1cc2ccccc2cc1O` [Dynasore], the AUCn runs as follows: (0.4 µM) 13.10; (2 µM) 13.81; (10 µM) 18.85; (50 µM) 23.18.

As to `NCCCC(N)(C(=O)O)C(F)F` (stereo not shown) [Eflornithin (dfmo), Eflornithin], the AUCn (0.4 µM) is 44.63, the AUCn (2 µM) is on record as 32.10, the AUCn (10 µM) is 30.27 and the AUCn (50 µM) is 32.46.

As to `Nc1nc(=O)n([C@@H]2CS[C@H](CO)O2)cc1F` [Emtricitabine], the AUCn was 36.81 (0.4 µM), 35.47 (2 µM), 34.12 (10 µM) and 37.28 (50 µM).

In the case of `CC(=O)OCC(CCn1cnc2cnc(N)nc21)COC(C)=O` [Famciclovir], the AUCn is, setting by setting: (0.4 µM) 39.12; (2 µM) 34.29; (10 µM) 36.03; (50 µM) 37.57.

As to `NC(=O)c1nc(F)c[nH]c1=O` [Favipiravir], the AUCn runs as follows: (0.4 µM) 30.35; (2 µM) 41.18; (10 µM) 37.23; (50 µM) 74.44.

For `CC(C)n1c(/C=C/C(O)CC(O)CC(=O)O)c(-c2ccc(F)cc2)c2ccccc21` (stereo not shown) [Fluvastatin], the AUCn reads like this: (0.4 µM) 33.08; (2 µM) 16.45; (10 µM) 11.66; (50 µM) 13.86.

The compound `O=c1c(-c2ccc(O)cc2)coc2cc(O)cc(O)c12` [Genistein] came in with an AUCn (0.4 µM) of 11.7. Moreover, where the note is “2 µM”, the AUCn was found to be 12.8. Moreover, under “10 µM”, the AUCn was determined as 13.3. Further, the AUCn (50 µM) is listed as 11.8. Under setting [1], the activation at 0.4 µM was -17.5%, the activation at 2 µM was -9.65%, the activation at 10 µM was -6.34% and the activation at 50 µM is -16.7%.

As to `CC(C)Nc1nc2cc(Cl)c(Cl)cc2n1[C@H]1O[C@@H](CO)[C@H](O)[C@@H]1O` [Maribavir], the AUCn is, setting by setting: (0.4 µM) 33.80; (2 µM) 34.21; (10 µM) 32.99; (50 µM) 45.42.

Consider `COc1nc(N)nc2c1ncn2[C@@H]1O[C@H](CO)[C@@H](O)[C@@H]1O` [Nelarabine], for which the AUCn runs as follows: (0.4 µM) 33.26; (2 µM) 32.33; (10 µM) 30.63; (50 µM) 40.34.

Consider `Nc1nc2c(ncn2CCC(CO)CO)c(=O)[nH]1` [Penciclovir], for which the AUCn is, setting by setting: (0.4 µM) 36.54; (2 µM) 33.23; (10 µM) 30.15; (50 µM) 42.37.

The compound `CC[C@H](C)C(=O)O[C@H]1C[C@H](O)C=C2C=C[C@H](C)[C@H](CC[C@@H](O)C[C@@H](O)CC(=O)O)[C@H]21` [Pravastatin] gave an AUCn (0.4 µM) of 45.23, an AUCn (2 µM) of 36.52, an AUCn (10 µM) of 37.85 and an AUCn (50 µM) of 30.29.

Take `[H]/N=C(\N/C(=N/[H])Nc1ccc(Cl)cc1)NC(C)C` [Proguanil hydrochloride]: the AUCn is recorded as 34.82 (0.4 µM), 36.10 (2 µM), 38.33 (10 µM) and 59.56 (50 µM).

Turning to `CCC(C)(C)C(=O)O[C@H]1C[C@@H](C)C=C2C=C[C@H](C)[C@H](CC[C@@H]3C[C@@H](O)CC(=O)O3)[C@H]21` [Simvastatin], the AUCn reads like this: (0.4 µM) 34.65; (2 µM) 32.56; (10 µM) 24.99; (50 µM) 20.58.

As for `CC(C)OC(=O)[C@H](C)N[P@](=O)(OC[C@H]1O[C@@H](n2ccc(=O)[nH]c2=O)[C@](C)(F)[C@@H]1O)Oc1ccccc1` [Sofosbuvir], the AUCn was 35.31 (0.4 µM), 33.28 (2 µM), 34.01 (10 µM) and 35.76 (50 µM).
